Source: US8802597B2, “Herbicidal pyrimidines” (E I du Pont de Nemours and Company, priority 2003, dated 2014)
Like-named read-outs stand apart in the source and are kept apart here.

Assays:
Assay in all cases: Test C pre/postemergence
Type in all cases: in vivo
[1] = system: yellow nutsedge (Cyperus esculentus); conditions: Cyperus, read-out: Plant response rating, Nutsedge, Yellow; for pest or weed control at 250 g/ha: 250 g ai/ha; for pest or weed control at 500 g/ha: 500 g ai/ha
Procedure, shortened: (§1)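 Test compounds, formulated in a non-phytotoxic solvent mix with surfactant, were applied to freshly planted seeds and, at the same time, to emerged plants at 1- to 4-leaf stage (2 to 18 cm). After 12 to 14 days in the greenhouse, response was scored visually versus controls, 0 = no effect, 100 = complete control.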

[2] = system: goosegrass (Eleusine indica); conditions: Eleusine indica; for pest or weed control at 62 g/ha: 62 g ai/ha; for pest or weed control at 125 g/ha: 125 g ai/ha; for pest or weed control at 250 g/ha: 250 g ai/ha; for pest or weed control at 500 g/ha: 500 g ai/ha
Procedure, shortened: as §1

corn (Zea mays) = conditions: Zea mays; for Corn plant response rating (crop injury, 0 = no effect, 100 = complete kill) at 62 g/ha: 62 g ai/ha; for Corn plant response rating (crop injury, 0 = no effect, 100 = complete kill) at 125 g/ha: 125 g ai/ha; for Corn plant response rating (crop injury, 0 = no effect, 100 = complete kill) at 250 g/ha: 250 g ai/ha; for Corn plant response rating (crop injury, 0 = no effect, 100 = complete kill) at 500 g/ha: 500 g ai/ha
Procedure, shortened: as §1

[3] = system: common ragweed (Ambrosia elatior); conditions: Ambrosia artemisiifolia; for pest or weed control at 62 g/ha: 62 g ai/ha; for pest or weed control at 125 g/ha: 125 g ai/ha; for pest or weed control at 250 g/ha: 250 g ai/ha; for pest or weed control at 500 g/ha: 500 g ai/ha
Procedure, shortened: as §1

[4] = system: pigweed (Amaranthus retroflexus); conditions: Amaranthus retroflexus; for pest or weed control at 62 g/ha: 62 g ai/ha; for pest or weed control at 125 g/ha: 125 g ai/ha; for pest or weed control at 250 g/ha: 250 g ai/ha; for pest or weed control at 500 g/ha: 500 g ai/ha
Procedure, shortened: as §1

kochia (Kochia scoparia) = conditions: Bassia scoparia; for pest or weed control at 62 g/ha: 62 g ai/ha; for pest or weed control at 125 g/ha: 125 g ai/ha; for pest or weed control at 250 g/ha: 250 g ai/ha; for pest or weed control at 500 g/ha: 500 g ai/ha
Procedure, shortened: as §1

[5] = post-emergence, Postemergence, scale 0 to 100
[6] = pre-emergence, Preemergence, scale 0 to 100
[7] = post-emergence, Postemergence, scale 0 to 100 (0 no effect, 100 complete control), read-out: Goosegrass plant response rating
[8] = post-emergence, Postemergence, scale 0 to 100, read-out: Plant response rating, Goosegrass
[9] = pre-emergence, Preemergence, scale 0 to 100, read-out: Plant response rating, Goosegrass
[10] = post-emergence, Postemergence, scale 0 to 100 (0 no effect, 100 complete control), read-out: Corn plant response rating
[11] = post-emergence, Postemergence, scale 0 to 100 (0 no effect, 100 complete control), read-out: Ragweed plant response rating
[12] = post-emergence, Postemergence, scale 0 to 100, read-out: Plant response rating, Ragweed
[13] = pre-emergence, Preemergence, scale 0 to 100, read-out: Plant response rating, Ragweed
[14] = post-emergence, Postemergence, scale 0 to 100 (0 no effect, 100 complete control), read-out: Pigweed plant response rating
[15] = post-emergence, Postemergence, scale 0 to 100, read-out: Plant response rating, Pigweed
[16] = pre-emergence, Preemergence, scale 0 to 100, read-out: Plant response rating, Pigweed
[17] = post-emergence, Postemergence, scale 0 to 100 (0 no effect, 100 complete control), read-out: Kochia plant response rating
[18] = post-emergence, Postemergence, scale 0 to 100, read-out: Plant response rating, Kochia
[19] = pre-emergence, Preemergence, scale 0 to 100, read-out: Plant response rating, Kochia

CNc1nc(C2CC2)nc(C(=O)OC)c1Br [Compound 5]
pest or weed control at 250 g/ha [1, 5]: 0% | pest or weed control at 500 g/ha [1, 5]: 0% | pest or weed control at 62 g/ha ([1]; pre-emergence, Preemergence, 62 g ai/ha, scale 0 to 100, 0 no effect, 100 complete control): 0% | pest or weed control at 125 g/ha ([1]; pre-emergence, Preemergence, 125 g ai/ha, scale 0 to 100): 0% | pest or weed control at 250 g/ha [1, 6]: 0% | pest or weed control at 500 g/ha [1, 6]: 0% | pest or weed control at 62 g/ha [2, 7]: 0% | pest or weed control at 125 g/ha [2, 7]: 5% | pest or weed control at 250 g/ha [2, 8]: 40% | pest or weed control at 500 g/ha [2, 8]: 50% | pest or weed control at 62 g/ha ([2]; pre-emergence, Preemergence, scale 0 to 100, 0 no effect, 100 complete control, read-out: Plant response rating, Goosegrass): 0% | pest or weed control at 125 g/ha [2, 9]: 0% | pest or weed control at 250 g/ha [2, 9]: 0% | pest or weed control at 500 g/ha [2, 9]: 40% | Corn plant response rating (crop injury, 0 = no effect, 100 = complete kill) at 62 g/ha (corn (Zea mays); [10]): 10% | Corn plant response rating (crop injury, 0 = no effect, 100 = complete kill) at 125 g/ha (corn (Zea mays); [10]): 40% | Corn plant response rating (crop injury, 0 = no effect, 100 = complete kill) at 250 g/ha (corn (Zea mays); [5]): 40% | Corn plant response rating (crop injury, 0 = no effect, 100 = complete kill) at 500 g/ha (corn (Zea mays); [5]): 45% | Corn plant response rating (crop injury, 0 = no effect, 100 = complete kill) at 62 g/ha (corn (Zea mays); pre-emergence, Preemergence, scale 0 to 100, 0 no effect, 100 complete control, read-out: Plant response rating, Corn): 5% | Corn plant response rating (crop injury, 0 = no effect, 100 = complete kill) at 125 g/ha (corn (Zea mays); pre-emergence, Preemergence, scale 0 to 100, read-out: Plant response rating, Corn): 5% | Corn plant response rating (crop injury, 0 = no effect, 100 = complete kill) at 250 g/ha (corn (Zea mays); [6]): 20% | Corn plant response rating (crop injury, 0 = no effect, 100 = complete kill) at 500 g/ha (corn (Zea mays); [6]): 50% | pest or weed control at 62 g/ha [3, 11]: 90% | pest or weed control at 125 g/ha [3, 11]: 95% | pest or weed control at 250 g/ha [3, 12]: 95% | pest or weed control at 500 g/ha [3, 12]: 100% | pest or weed control at 62 g/ha ([3]; pre-emergence, Preemergence, scale 0 to 100, 0 no effect, 100 complete control, read-out: Plant response rating, Ragweed): 85% | pest or weed control at 125 g/ha [3, 13]: 90% | pest or weed control at 250 g/ha [3, 13]: 100% | pest or weed control at 500 g/ha [3, 13]: 100% | pest or weed control at 62 g/ha [4, 14]: 85% | pest or weed control at 125 g/ha [4, 14]: 90% | pest or weed control at 250 g/ha [4, 15]: 90% | pest or weed control at 500 g/ha [4, 15]: 100% | pest or weed control at 62 g/ha ([4]; pre-emergence, Preemergence, scale 0 to 100, 0 no effect, 100 complete control, read-out: Plant response rating, Pigweed): 60% | pest or weed control at 125 g/ha [4, 16]: 90% | pest or weed control at 250 g/ha [4, 16]: 100% | pest or weed control at 500 g/ha [4, 16]: 100% | pest or weed control at 62 g/ha (kochia (Kochia scoparia); [17]): 100% | pest or weed control at 125 g/ha (kochia (Kochia scoparia); [17]): 100% | pest or weed control at 250 g/ha (kochia (Kochia scoparia); [18]): 100% | pest or weed control at 500 g/ha (kochia (Kochia scoparia); [18]): 100% | pest or weed control at 62 g/ha (kochia (Kochia scoparia); pre-emergence, Preemergence, scale 0 to 100, 0 no effect, 100 complete control, read-out: Plant response rating, Kochia): 80% | pest or weed control at 125 g/ha (kochia (Kochia scoparia); [19]): 95% | pest or weed control at 250 g/ha (kochia (Kochia scoparia); [19]): 100% | pest or weed control at 500 g/ha (kochia (Kochia scoparia); [19]): 100%
